Legend:
Set-up in all cases: scale not given here
ABUTH Velvetleaf [1] = assay: Postemergence herbicidal evaluation, ABUTH; type: in vivo, Abutilon theophrasti, Medic.; conditions: rated two - three weeks after treatment
Procedure, shortened: (§1)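 Visual injury rating ~2–3 wk post-spray; replicate tests averaged. Two-week-old seedlings; foliar spray at 40 psi; 0.006–0.400 kg ai/ha in 80/20 acetone/water + 1.0% methylated seed oil.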

AMBEL Ragweed, Common [2] = assay: Postemergence herbicidal evaluation, AMBEL; type: in vivo, Ambrosia artemisifolia, L.; conditions: rated two - three weeks after treatment
Procedure, shortened: as §1

CASOB Sicklepod [3] = assay: Postemergence herbicidal evaluation, CASOB; type: in vivo, Cassia obtusifolia, L.; conditions: rated two - three weeks after treatment
Procedure, shortened: as §1

[4] = tested on: CHEAL Lambsquarters, Common; assay: Postemergence herbicidal evaluation, CHEAL; type: in vivo, Chenopodium album, L.; conditions: rated two - three weeks after treatment
Procedure, shortened: as §1

ECHOG Barnyardgrass [5] = assay: Postemergence herbicidal evaluation, ECHOG; type: in vivo, Echinochloa crus-galli, (L.) Beau; conditions: rated two - three weeks after treatment
Procedure, shortened: as §1

GALAP Galium [6] = assay: Postemergence herbicidal evaluation, GALAP; type: in vivo, Galium aparine; conditions: rated two - three weeks after treatment
Procedure, shortened: as §1

[7] = tested on: IPOHE Morningglory, Ivyleaf; assay: Postemergence herbicidal evaluation, IPOHE; type: in vivo, Ipomoea hederacea, (L.) Jacq.; conditions: rated two - three weeks after treatment
Procedure, shortened: as §1

SETVI Foxtail, Green [8] = assay: Postemergence herbicidal evaluation, SETVI; type: in vivo, Setaria viridis, (L.) Beau; conditions: rated two - three weeks after treatment
Procedure, shortened: as §1

GLXMAW Soybean, Williams [9] = assay: Postemergence herbicidal evaluation, GLXMAW; type: in vivo, Glycine max, (L.) Merr. cv Williams; conditions: rated two - three weeks after treatment
Procedure, shortened: as §1

[10] = tested on: TRZAWR Wheat, Winter, cv Riband; assay: Postemergence herbicidal evaluation, TRZAWR; type: in vivo, Triticum aestivum; conditions: rated two - three weeks after treatment
Procedure, shortened: as §1

ORYSAT Rice, Tebonnet [11] = assay: Postemergence herbicidal evaluation, ORYSAT; type: in vivo, Oryza sativa, (L.); conditions: rated two - three weeks after treatment
Procedure, shortened: as §1

ZEAMX Corn, Field [12] = assay: Postemergence herbicidal evaluation, ZEAMX; type: in vivo, Zea mays, L. (Sammel-Bezeichnung); conditions: rated two - three weeks after treatment
Procedure, shortened: as §1

ABUTH Velvetleaf [13] = assay: Preemergence herbicidal evaluation, ABUTH; type: in vivo, Abutilon theophrasti, Medic.; conditions: rated four to five weeks after treatment
Procedure, shortened: (§2)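 First, seed is blended with potting soil and sown over roughly an inch of soil per cup. Next, the surface is sprayed with an aqueous acetone solution delivering about 0.013–0.800 kg/ha. Finally, cups are grown in the greenhouse and rated after 4–5 weeks.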

AMBEL Ragweed, Common [14] = assay: Preemergence herbicidal evaluation, AMBEL; type: in vivo, Ambrosia artemisifolia, L.; conditions: rated four to five weeks after treatment
Procedure, shortened: as §2

CASOB Sicklepod [15] = assay: Preemergence herbicidal evaluation, CASOB; type: in vivo, Cassia obtusifolia, L.; conditions: rated four to five weeks after treatment
Procedure, shortened: as §2

[16] = tested on: CHEAL Lambsquarters, Common; assay: Preemergence herbicidal evaluation, CHEAL; type: in vivo, Chenopodium album, L.; conditions: rated four to five weeks after treatment
Procedure, shortened: as §2

ECHOG Barnyardgrass [17] = assay: Preemergence herbicidal evaluation, ECHOG; type: in vivo, Echinochloa crus-galli, (L.) Beau; conditions: rated four to five weeks after treatment
Procedure, shortened: as §2

GALAP Galium [18] = assay: Preemergence herbicidal evaluation, GALAP; type: in vivo, Galium aparine; conditions: rated four to five weeks after treatment
Procedure, shortened: as §2

[19] = tested on: IPOHE Morningglory, Ivyleaf; assay: Preemergence herbicidal evaluation, IPOHE; type: in vivo, Ipomoea hederacea, (L.) Jacq.; conditions: rated four to five weeks after treatment
Procedure, shortened: as §2

SETVI Foxtail, Green [20] = assay: Preemergence herbicidal evaluation, SETVI; type: in vivo, Setaria viridis, (L.) Beau; conditions: rated four to five weeks after treatment
Procedure, shortened: as §2

GLXMAW Soybean, Williams [21] = assay: Preemergence herbicidal evaluation, GLXMAW; type: in vivo, Glycine max, (L.) Merr. cv Williams; conditions: rated four to five weeks after treatment
Procedure, shortened: as §2

[22] = tested on: TRZAWR Wheat, Winter, cv Riband; assay: Preemergence herbicidal evaluation, TRZAWR; type: in vivo, Triticum aestivum; conditions: rated four to five weeks after treatment
Procedure, shortened: as §2

ORYSAT Rice, Tebonnet [23] = assay: Preemergence herbicidal evaluation, ORYSAT; type: in vivo, Oryza sativa, (L.); conditions: rated four to five weeks after treatment
Procedure, shortened: as §2

ZEAMX Corn, Field [24] = assay: Preemergence herbicidal evaluation, ZEAMX; type: in vivo, Zea mays, L. (Sammel-Bezeichnung); conditions: rated four to five weeks after treatment
Procedure, shortened: as §2

COC(=O)COc1ccc(-n2nnc3cc(F)c(-n4c(=O)cc(C(F)(F)F)n(C)c4=O)cc32)cc1 [Example 45]
1.0: Postemergence herbicidal rating GALAP (GALAP Galium [6]; rate 0.032 kg/ha) | Postemergence herbicidal rating ORYSAT (ORYSAT Rice, Tebonnet [11]; rate 0.016 kg/ha) | Preemergence herbicidal rating, GLXMAW (GLXMAW Soybean, Williams [21]; rate 0.125 kg/ha) | Preemergence herbicidal rating, TRZAWR ([22]; rate 0.125 kg/ha)
0.5: Postemergence herbicidal rating ORYSAT (ORYSAT Rice, Tebonnet [11]; rate 0.008 kg/ha)
4.0: Postemergence herbicidal rating CASOB (CASOB Sicklepod [3]; rate 0.032 kg/ha) | Postemergence herbicidal rating CHEAL ([4]; rate 0.016 kg/ha) | Postemergence herbicidal rating TRZAWR ([10]; rate 0.008 kg/ha) | Preemergence herbicidal rating, ABUTH (ABUTH Velvetleaf [13]; rate 0.062 kg/ha) | Preemergence herbicidal rating, GALAP (GALAP Galium [18]; rate 0.062 kg/ha) | Preemergence herbicidal rating, GALAP (GALAP Galium [18]; rate 0.125 kg/ha) | Preemergence herbicidal rating, IPOHE ([19]; rate 0.125 kg/ha)
0.0: Postemergence herbicidal rating CASOB (CASOB Sicklepod [3]; rate 0.008 kg/ha) | Postemergence herbicidal rating CASOB (CASOB Sicklepod [3]; rate 0.016 kg/ha) | Postemergence herbicidal rating ECHCG (ECHOG Barnyardgrass [5]; rate 0.008 kg/ha) | Postemergence herbicidal rating GALAP (GALAP Galium [6]; rate 0.008 kg/ha) | Postemergence herbicidal rating GALAP (GALAP Galium [6]; rate 0.016 kg/ha) | Preemergence herbicidal rating, ABUTH (ABUTH Velvetleaf [13]; rate 0.016 kg/ha) | Preemergence herbicidal rating, ABUTH (ABUTH Velvetleaf [13]; rate 0.032 kg/ha) | Preemergence herbicidal rating, AMBEL (AMBEL Ragweed, Common [14]; rate 0.016 kg/ha) | Preemergence herbicidal rating, AMBEL (AMBEL Ragweed, Common [14]; rate 0.032 kg/ha) | Preemergence herbicidal rating, AMBEL (AMBEL Ragweed, Common [14]; rate 0.062 kg/ha) | Preemergence herbicidal rating, AMBEL (AMBEL Ragweed, Common [14]; rate 0.125 kg/ha) | Preemergence herbicidal rating, CASOB (CASOB Sicklepod [15]; rate 0.016 kg/ha) | Preemergence herbicidal rating, CASOB (CASOB Sicklepod [15]; rate 0.032 kg/ha) | Preemergence herbicidal rating, CASOB (CASOB Sicklepod [15]; rate 0.062 kg/ha) | Preemergence herbicidal rating, CHEAL ([16]; rate 0.016 kg/ha) | Preemergence herbicidal rating, CHEAL ([16]; rate 0.032 kg/ha) | Preemergence herbicidal rating, ECHCG (ECHOG Barnyardgrass [17]; rate 0.016 kg/ha) | Preemergence herbicidal rating, ECHCG (ECHOG Barnyardgrass [17]; rate 0.032 kg/ha) | Preemergence herbicidal rating, ECHCG (ECHOG Barnyardgrass [17]; rate 0.062 kg/ha) | Preemergence herbicidal rating, ECHCG (ECHOG Barnyardgrass [17]; rate 0.125 kg/ha) | Preemergence herbicidal rating, GALAP (GALAP Galium [18]; rate 0.016 kg/ha) | Preemergence herbicidal rating, GALAP (GALAP Galium [18]; rate 0.032 kg/ha) | Preemergence herbicidal rating, IPOHE ([19]; rate 0.016 kg/ha) | Preemergence herbicidal rating, IPOHE ([19]; rate 0.032 kg/ha) | Preemergence herbicidal rating, IPOHE ([19]; rate 0.062 kg/ha) | Preemergence herbicidal rating, SETVI (SETVI Foxtail, Green [20]; rate 0.016 kg/ha) | Preemergence herbicidal rating, SETVI (SETVI Foxtail, Green [20]; rate 0.032 kg/ha) | Preemergence herbicidal rating, GLXMAW (GLXMAW Soybean, Williams [21]; rate 0.016 kg/ha) | Preemergence herbicidal rating, GLXMAW (GLXMAW Soybean, Williams [21]; rate 0.032 kg/ha) | Preemergence herbicidal rating, GLXMAW (GLXMAW Soybean, Williams [21]; rate 0.062 kg/ha) | Preemergence herbicidal rating, TRZAWR ([22]; rate 0.016 kg/ha) | Preemergence herbicidal rating, TRZAWR ([22]; rate 0.032 kg/ha) | Preemergence herbicidal rating, TRZAWR ([22]; rate 0.062 kg/ha) | Preemergence herbicidal rating, ORYSAT (ORYSAT Rice, Tebonnet [23]; rate 0.016 kg/ha) | Preemergence herbicidal rating, ORYSAT (ORYSAT Rice, Tebonnet [23]; rate 0.032 kg/ha) | Preemergence herbicidal rating, ORYSAT (ORYSAT Rice, Tebonnet [23]; rate 0.062 kg/ha) | Preemergence herbicidal rating, ZEAMX (ZEAMX Corn, Field [24]; rate 0.016 kg/ha) | Preemergence herbicidal rating, ZEAMX (ZEAMX Corn, Field [24]; rate 0.032 kg/ha) | Preemergence herbicidal rating, ZEAMX (ZEAMX Corn, Field [24]; rate 0.062 kg/ha) | Preemergence herbicidal rating, ZEAMX (ZEAMX Corn, Field [24]; rate 0.125 kg/ha)
7.0: Postemergence herbicidal rating AMBEL (AMBEL Ragweed, Common [2]; rate 0.032 kg/ha) | Postemergence herbicidal rating CHEAL ([4]; rate 0.032 kg/ha) | Postemergence herbicidal rating CHEAL ([4]; rate 0.062 kg/ha)
3.5: Postemergence herbicidal rating ORYSAT (ORYSAT Rice, Tebonnet [11]; rate 0.062 kg/ha)
5.0: Postemergence herbicidal rating CASOB (CASOB Sicklepod [3]; rate 0.062 kg/ha) | Postemergence herbicidal rating ECHCG (ECHOG Barnyardgrass [5]; rate 0.016 kg/ha) | Preemergence herbicidal rating, ORYSAT (ORYSAT Rice, Tebonnet [23]; rate 0.125 kg/ha)
6.0: Postemergence herbicidal rating GLXMAW (GLXMAW Soybean, Williams [9]; rate 0.008 kg/ha) | Postemergence herbicidal rating TRZAWR ([10]; rate 0.016 kg/ha) | Postemergence herbicidal rating TRZAWR ([10]; rate 0.032 kg/ha)
6.5: Postemergence herbicidal rating GLXMAW (GLXMAW Soybean, Williams [9]; rate 0.016 kg/ha)
9.0: Postemergence herbicidal rating ABUTH (ABUTH Velvetleaf [1]; rate 0.008 kg/ha) | Postemergence herbicidal rating ABUTH (ABUTH Velvetleaf [1]; rate 0.016 kg/ha) | Postemergence herbicidal rating ABUTH (ABUTH Velvetleaf [1]; rate 0.032 kg/ha) | Postemergence herbicidal rating ABUTH (ABUTH Velvetleaf [1]; rate 0.062 kg/ha) | Postemergence herbicidal rating AMBEL (AMBEL Ragweed, Common [2]; rate 0.062 kg/ha) | Postemergence herbicidal rating ECHCG (ECHOG Barnyardgrass [5]; rate 0.062 kg/ha) | Postemergence herbicidal rating IPOHE ([7]; rate 0.008 kg/ha) | Postemergence herbicidal rating IPOHE ([7]; rate 0.016 kg/ha) | Postemergence herbicidal rating IPOHE ([7]; rate 0.032 kg/ha) | Postemergence herbicidal rating IPOHE ([7]; rate 0.062 kg/ha) | Postemergence herbicidal rating SETVI (SETVI Foxtail, Green [8]; rate 0.032 kg/ha) | Postemergence herbicidal rating SETVI (SETVI Foxtail, Green [8]; rate 0.062 kg/ha) | Postemergence herbicidal rating ZEAMX (ZEAMX Corn, Field [12]; rate 0.062 kg/ha) | Preemergence herbicidal rating, ABUTH (ABUTH Velvetleaf [13]; rate 0.125 kg/ha) | Preemergence herbicidal rating, CHEAL ([16]; rate 0.062 kg/ha) | Preemergence herbicidal rating, CHEAL ([16]; rate 0.125 kg/ha) | Preemergence herbicidal rating, SETVI (SETVI Foxtail, Green [20]; rate 0.062 kg/ha) | Preemergence herbicidal rating, SETVI (SETVI Foxtail, Green [20]; rate 0.125 kg/ha)
2.0: Postemergence herbicidal rating AMBEL (AMBEL Ragweed, Common [2]; rate 0.008 kg/ha) | Postemergence herbicidal rating CHEAL ([4]; rate 0.008 kg/ha) | Postemergence herbicidal rating ORYSAT (ORYSAT Rice, Tebonnet [11]; rate 0.032 kg/ha)
3.0: Postemergence herbicidal rating AMBEL (AMBEL Ragweed, Common [2]; rate 0.016 kg/ha) | Postemergence herbicidal rating GALAP (GALAP Galium [6]; rate 0.062 kg/ha) | Postemergence herbicidal rating SETVI (SETVI Foxtail, Green [8]; rate 0.008 kg/ha)
7.5: Postemergence herbicidal rating ZEAMX (ZEAMX Corn, Field [12]; rate 0.008 kg/ha)
8.0: Postemergence herbicidal rating ECHCG (ECHOG Barnyardgrass [5]; rate 0.032 kg/ha) | Postemergence herbicidal rating SETVI (SETVI Foxtail, Green [8]; rate 0.016 kg/ha) | Postemergence herbicidal rating GLXMAW (GLXMAW Soybean, Williams [9]; rate 0.032 kg/ha) | Postemergence herbicidal rating GLXMAW (GLXMAW Soybean, Williams [9]; rate 0.062 kg/ha) | Postemergence herbicidal rating TRZAWR ([10]; rate 0.062 kg/ha) | Postemergence herbicidal rating ZEAMX (ZEAMX Corn, Field [12]; rate 0.016 kg/ha) | Postemergence herbicidal rating ZEAMX (ZEAMX Corn, Field [12]; rate 0.032 kg/ha)
